Test results reported in patent US20170106101A1, “METHODS INVOLVING MACROPHAGE TUMOR CELL FUSION HYBRIDS” (OREGON HEALTH & SCIENCE UNIVERSITY, priority 2015, published 2017).

Tests used:
Format in all cases: cell-based, mouse
[1] = test system: MC38-derived fusion hybrids; assay: Transwell chemotaxis assay towards ligand; settings: ligand 25 ng/ml
Protocol: (§1) Chemotaxis assay. Chemotaxis assays were performed using IncuCyte™ Chemotaxis Cell Migration Assay (Essen) with at least three technical replicates of triplicate samples. Briefly, 1000 cancer cells were plated in the top wells in DMEM+0.2% FBS after incubation in serum-free media for 20 h. Csf1 or Sdf1 ligand (25 ng/mL) was added to the bottom well and cells were incubated at 37° C. for at least 36 hours with live-imaging. The neutralizing antibodies to the Csf1R (eBioscience), Cxcr4 (Biolegend) and isotype control antibody were added to the top and bottom well (2.5 ng/μL). Migration was quantified by measuring phase contrast area of the top and bottom wells for each timepoint using IncuCyte ZOOM® software. Triplicates of each condition were performed, and the means and standard deviations were calculated. p<0.02 for hybrids treated with Csf1 or Sdf1 relative to hybrids without Csf1 or Sdf1 by unpaired t-test. Two independent hybrid isolates were analyzed. Technical octupulicates (MC38) or sextuplicates (B16F10) with biologic quadruplicates or triplicates were analyzed. For inhibitor studies technical duplicates with biologic triplicates were analyzed.

[2] = test system: unfused MC38 cancer cells; assay: Transwell chemotaxis assay towards ligand; settings: ligand 25 ng/ml
Protocol: as §1

[3] = test system: MC38 cells; assay: Growth responsiveness to cytokines and soluble factors (MTS, confluence, viability); settings: increasing concentrations of cytokine
Protocol: (§2) In vitro-derived hybrid proliferation. For phenotypic profiling growth responsiveness to cytokines and soluble factors, 95 different cytokines or soluble signaling molecules were distributed at high, medium and low concentrations in 384 well plates, in 25 μl of RPMI (Life Technologies, NY) supplemented with 1% FBS; and 25 μl of a 1.2×10^4 cells/ml suspension of hybrid or MC-38 cells in DMEM+4% FBS was added to each well. 99 wells of each plate were left cytokine-free and no cells were added to two of these wells, which served to provide measurements of background signal. Plates were cultured in a humidified incubator for 72 hours, after which 5 ul of MTS reagent was added to each well. Two hours later, absorbance at 490 nm was read with a 384-well plate reader. For each plate, absorbance values for each cytokine-treated well were normalized to the mean absorbance of the cytokine-free wells on that plate, and expressed in terms of standard deviations from the cytokine-free mean. Three independent hybrid isolates and three MC38 replicates were analyzed. […] In these experiments, 2.5×10^4 hybrid or MC38 cells were plated in the presence of three different concentrations for each soluble factor, or in media alone (DMEM+2.5% FBS), in triplicate for each condition. Plates were imaged every two hours for 90 hours, and then cell viability was assessed.

[4] = test system: MC38-derived hybrid cells; assay: as above; settings: increasing concentrations of cytokine; MC38-derived hybrids
Protocol: as §2

[5] = test system: B16F10 cancer cell hybrids; assay: Transwell chemotaxis assay towards ligand; settings: ligand 25 ng/ml
Protocol: as §1

## Sdf1: strongly chemotactic lymphocyte cytokine, ligand of Cxcr4
[1]
  migration of fusion hybrids towards ligand: migrated towards
[2]
  migration of unfused MC38 cells towards ligand: incapable of responding

## Tnf-α
[3]
  effect on MC38 proliferation / growth: profound inhibitory effect
[4]
  effect on hybrid proliferation / growth: resistant

B1: Csf1: ligand of colony stimulating factor 1 receptor, used as chemoattractant (protein, UniProt P07141 33-552, looked up)
Macrophage colony-stimulating …: KEVSEHCSHMIGNGHLKVLQQLIDSQMETSCQIAFEFVDQEQLDDPVCYLKKAFFLVQDIIDETMRFKDNTPNANATERLQELSNNLNSCFTKDYEEQNKACVRTFHETPLQLLEKIKNFFNETKNLLEKDWNIFTKNCNNSFAKCSSRDVVTKPDCNCLYPKATPSSDPASASPHQPPAPSMAPLAGLAWDDSQRTEGSSLLPSELPLRIEDPGSAKQRPPRSTCQTLESTEQPNHGDRLTEDSQPHPSAGGPVPGVEDILESSLGTNWVLEEASGEASEGFLTQEAKFSPSTPVGGSIQAETDRPRALSASPFPKSTEDQKPVDITDRPLTEVNPMRPIGQTQNNTPEKTDGTSTLREDHQEPGSPHIATPNPQRVSNSATPVAQLLLPKSHSWGIVLPLGELEGKRSTRDRRSPAELEGGSASEGAARPVARFNSIPLTDTGHVEQHEGSSDPQIPESVFHLLVPGIILVLLTVGGLLFYKWKWRSHRDPQTLDSSVGRPEDSSLTQDEDRQVELPV
[5]
  migration of B16F10 hybrids towards ligand: low response
[1]
  migration of fusion hybrids towards ligand: migrated towards
[2]
  migration of unfused MC38 cells towards ligand: incapable of responding

B2: Hgf: Hepatic growth factor, cytokine tested for growth effect on MC38 and hybrid cells (protein, UniProt Q08048 33-495; Q08048 496-728, looked up)
Hepatocyte growth factor …: QKKRRNTLHEFKKSAKTTLTKEDPLLKIKTKKVNSADECANRCIRNRGFTFTCKAFVFDKSRKRCYWYPFNSMSSGVKKGFGHEFDLYENKDYIRNCIIGKGGSYKGTVSITKSGIKCQPWNSMIPHEHSFLPSSYRGKDLQENYCRNPRGEEGGPWCFTSNPEVRYEVCDIPQCSEVECMTCNGESYRGPMDHTESGKTCQRWDQQTPHRHKFLPERYPDKGFDDNYCRNPDGKPRPWCYTLDPDTPWEYCAIKTCAHSAVNETDVPMETTECIQGQGEGYRGTSNTIWNGIPCQRWDSQYPHKHDITPENFKCKDLRENYCRNPDGAESPWCFTTDPNIRVGYCSQIPKCDVSSGQDCYRGNGKNYMGNLSKTRSGLTCSMWDKNMEDLHRHIFWEPDASKLNKNYCRNPDDDAHGPWCYTGNPLIPWDYCPISRCEGDTTPTIVNLDHPVISCAKTKQLR
Hepatocyte growth factor beta …: VVNGIPTQTTVGWMVSLKYRNKHICGGSLIKESWVLTARQCFPARNKDLKDYEAWLGIHDVHERGEEKRKQILNISQLVYGPEGSDLVLLKLARPAILDNFVSTIDLPSYGCTIPEKTTCSIYGWGYTGLINADGLLRVAHLYIMGNEKCSQHHQGKVTLNESELCAGAEKIGSGPCEGDYGGPLICEQHKMRMVLGVIVPGRGCAIPNRPGIFVRVAYYAKWIHKVILTYKL
[3]
  effect on MC38 proliferation / growth: moderate, dose-dependent growth-suppressing effect
